Data from article PMC3636874, “An Antedrug of the CXCL12 Neutraligand Blocks Experimental Allergic Asthma without Systemic Effect in Mice” (The Journal of Biological Chemistry, 2013).
Like-named read-outs stand apart in the source and are kept apart here.

Assays:
Stability in mouse serum = format: in vitro ADME; settings: 37 °C; for half-life at 20 μM: mouse, mouse serum
Protocol: Solubility and stability studies were performed on a Gilson HPLC system with a photodiode array detector, an autosampler, and a Valco injector. Data acquisition and processing were performed with Trilution LC version 2.0 software. Measurements were carried out at 21 ± 1 °C. A 2.6-μm Kinetex column (50 × 4.6 mm) was used for stability studies in biological media, and a 5-μm Luna C18(2) column (50 × 4.6 mm) was used for solubility and chemical stability analysis. Both columns were purchased from Phenomenex. The injection volume was 20 μl, the mobile phase flow rate was 2 ml/min, and the following program was applied for the elution: 0–0.2 min, 0% B; 0.2–2.7 min, 0–100% B; 2.7–3.2 min, 100% B; 3.2–3.4 min, 100–0% B; 3.4–6.1 min, 0% B. Solvent B was HPLC grade acetonitrile (Sigma-Aldrich CHROMASOLV). The aqueous solvent contained 0.1% trifluoroacetic acid, and the detection wavelength was 365 nm.
Stability of chalcones was determined in mouse serum with or without 10% HP-βCD at 37 °C up to 16 h. For each compound, the 10 mM DMSO stock solution was diluted in serum to a final concentration of 20 μM with 1% DMSO. For the measurements with HP-β-cyclodextrin, a solution of PBS (pH 7.4) containing 10% (v/w) HP-βCD was saturated with compound powder. The saturated solution was then diluted in murine serum to a final compound concentration of 20 μM. The mixture was divided into five aliquots. The incubation of each aliquot was stopped at t0 and 30 min, 1, 2, and 16 h for chalcone 4 and at t0 and 15, 30, 45, and 60 min for CN-chalcone 4 by adding one volume of ice cold acetonitrile. Samples were stirred for 3 min, sonicated for 3 min, and then centrifuged at 4 °C before HPLC injection. The percentage of remaining test compound relative to t0 was measured by monitoring the peak area on the chromatogram.

[1] = system: inflammatory cell recruitment in the airways of OVA-sensitized and challenged BALB/c mice; experiment: 8-day murine model of airway hypereosinophilia (OVA sensitization and challenge), cell counts in BALF; format: in vivo, mouse; settings: for effect on eosinophil / inflammatory cell recruitment in BALF after OVA challenge, intranasal: intranasal 300 nmol/kg in 10% HP-βCD, 2 h before each challenge; for inhibition of eosinophil counts in BALF: intranasal, 300–500 nmol/kg in 10% HP-βCD, 2 h before each OVA challenge; for effect on inflammatory cell counts in BALF after OVA challenge, intraperitoneal in HP-βCD: twice daily 20 μmol/kg in 10% HP-βCD, 3 days; for effect on airway inflammation (BALF cell recruitment) after OVA challenge, intraperitoneal in carboxymethylcellulose: up to 350 μmol/kg once a day for 3 days in 1% carboxymethylcellulose
Protocol: The in vivo activity of the compounds was assessed in an 8-day model of hypereosinophilia created by immunization and challenge to ovalbumin in mice. Briefly, 9-week-old male BALB/c mice were sensitized by intraperitoneal injection of a mixture of 50 μg of ovalbumin (OVA, grade V; Sigma-Aldrich) adsorbed on aluminum hydroxide (2 mg; Sigma-Aldrich) in 0.1 ml of saline on days 0, 1, and 2. Mice were challenged intranasally with 10 μg of OVA in 25 μl of saline (12.5 μl/nostril) on days 5, 6, and 7. Control mice received intraperitoneal and intranasal administrations of saline alone. Intranasal administrations were performed under anesthesia with 50 mg/kg ketamine and 3.33 mg/kg xylazine given intraperitoneally. Food and water were supplied ad libitum. Animal experimentation was conducted with the approval of the government body that regulates animal research in France. The chalcone compounds were administered either by the intraperitoneal or intranasal routes. In a first set of experiments, mice received either chalcone 4 or carbonitrile-chalcone 4 solubilized in PBS with 10% HP-βCD (C0926, Sigma) by intranasal injection 2 h before each nasal OVA or saline challenge. In a second set of experiments, mice received CN-chalcone 4, vanillin, or parachlorobenzoylacetonitrile intranasally, in PBS with HP-βCD 10%, 2 h before each OVA or saline challenge. In the last set of experiments, mice received chalcone 4 or CN-chalcone 4 in suspension in carboxymethylcellulose 1% or solubilized in PBS with HP-βCD 10% and administered by intraperitoneal injection 2 h before each OVA or saline challenge. Collection of bronchoalveolar lavage fluid (BALF) was performed 24 h after the last OVA challenge. Mice were deeply anesthetized by intraperitoneal injection of 150 mg/kg ketamine and 10 mg/kg xylazine. A plastic canula was inserted into the trachea, and airways were lavaged by 10 instillations of 0.5 ml of ice-cold saline supplemented with 2.6 mM EDTA (saline-EDTA). Total and differential cell counts in the BALF were performed after centrifugation (300 × g for 5 min at 4 °C) to pellet cells. Erythrocytes were lysed by hypotonic shock by the addition of 1.5 ml of distilled H2O, followed by the addition of 0.5 ml of 0.6 M KCl. Cells were centrifuged and resuspended in 500 μl of ice-cold saline-EDTA, and total cell counts were determined using a hemocytometer (Neubauer's chamber). Differential cell counts were assessed on cytologic preparation obtained by cytocentrifugation (Cytospin 3, Shandon Ltd.) of 200 μl of diluted BALF (250,000 cells/ml in ice-cold saline-EDTA). Slides were stained with Hemacolor (Merck), and counts were performed on at least 400 cells for each preparation. Differential counts were expressed as absolute numbers or as a percentage of the total number of cells.
The in vivo activity of CN-chalcone 4 was assayed in a recently developed 8-day mouse model of airway hypereosinophilia ([24]). In this model, mice are sensitized by intraperitoneal injection of OVA (50 μg) adsorbed on 2 mg of aluminum hydroxide in 0.1 ml of saline on days 0, 1, and 2. Mice are then challenged intranasally with 10 μg of OVA in 25 μl of saline (12.5 μl/nostril) on days 5, 6, and 7. Drugs to be tested can be administered either systemically by the intraperitoneal route or locally by the intranasal route. The intranasal route mimics the inhalation exposure used in humans, which is the preferred and well accepted administration for inflamed airway treatment, in particular asthma. Thus, unless otherwise stated, drugs were administered intranasally in this study. Due to limited solubility of chalcone 4 (9 ± 1 μM) and CN-chalcone 4 (16 ± 2 μM) in saline buffer, drugs were dissolved in physiological solutions complemented with HP-βCD (10%, w/w). Under such conditions, chalcone 4 and CN-chalcone 4 could be dissolved at maximal concentrations reaching 690 ± 44 and 493 ± 36 μM, respectively.

[2] = set-up: method as in PMID 24900366; settings: cited from earlier work
[3] = 20 μM, with 10% HP-βCD, read-out: Stability half-life (t1/2), murine serum, 10% β-cyclodextrine (converted)
[4] = 20 μM, read-out: Stability half-life (t1/2), murine serum (converted)

## COc1cc(/C=C(\C#N)C(=O)c2ccc(Cl)cc2)ccc1O [CN-chalcone 4, (E)-2-(4-chlorobenzoyl)-3-(4-hydroxy-3-methoxyphenyl)acrylonitrile]
Stability in mouse serum; [3]
  half-life at 20 μM: 78 min
Stability in mouse serum; [4]
  half-life at 20 μM: 18 min
Stability in mouse serum; read-out: t½ in murine serum
  half-life at 20 μM: 20 min
[1]
  effect on eosinophil / inflammatory cell recruitment in BALF after OVA challenge, intranasal: as potent as chalcone 4
  inhibition of eosinophil counts in BALF: up to 50%
  effect on inflammatory cell counts in BALF after OVA challenge, intraperitoneal in HP-βCD: did not affect any inflammatory cell counts
  effect on airway inflammation (BALF cell recruitment) after OVA challenge, intraperitoneal in carboxymethylcellulose: inactive

## COc1cc(/C=C/C(=O)c2ccc(Cl)cc2)ccc1O [chalcone 4]
Stability in mouse serum; at 16 h
  percentage of starting molecule recovered, murine serum: 96%
  percentage of starting molecule recovered, murine serum, 10% β-cyclodextrine: 91%
Stability in mouse serum; [3]
  half-life at 20 μM: > 960 min
Stability in mouse serum; [4]
  half-life at 20 μM: > 960 min
[1]
  effect on eosinophil / inflammatory cell recruitment in BALF after OVA challenge, intranasal: Significant reduction of eosinophil recruitment
  inhibition of eosinophil counts in BALF: up to 50%
  effect on inflammatory cell counts in BALF after OVA challenge, intraperitoneal in HP-βCD: significantly reducing eosinophils, neutrophils, and T cell counts in BALF
  effect on airway inflammation (BALF cell recruitment) after OVA challenge, intraperitoneal in carboxymethylcellulose: dose-dependent anti-inflammatory activity
[2]; mouse lung homogenate
  Stability half-life (t1/2), lung homogenate: > 6 h
[2]; time not given
  percentage of starting molecule recovered, lung homogenate: 60%
